# Where “and” joins values, the source holds several entries; their conditions need not be identical. Equal entries are not always repeated.
# Tests used:
# [1] = test system: subjects with diabetic or idiopathic gastroparesis; assay: DIGEST I: GRS Summary Score 2 (Factor 2: nausea and vomiting); format: in vivo, human
# Text: (§1) A daily proprietary patient reported outcome (PRO) tool was used to assess GP symptoms, the Gastroparesis Rating Scale (GRS), developed according to the current FDA PRO guidance. The GRS covers the following cardinal symptom domains: (1) nausea, (2) vomiting, (3) postprandial fullness/early satiety, (4) bloating, (5) upper abdominal pain, (6) gastric reflux/burning, and (7) bowel movements. The GRS symptom domains may be also categorized or grouped into Factor 1 (fullness, early satiety, bloating, upper abdominal pain, and epigastric burning) and Factor 2 (nausea and vomiting).
# GRS Factor 1 (also Summary Score 1) comprised fullness/early satiety, bloating, upper abdominal pain, and epigastric burning domains, whereas GRS Factor 2 (also Summary Score 2) comprised nausea and vomiting domains.
# After the psychometric evaluation the GRS was summarized using two summary scores: Summary Score 1 combined the fullness/early satiety, bloating, upper abdominal pain, and epigastric burning domains and Summary Score 2 combined the nausea and vomiting domains.
# [2] = test system: subjects with diabetic or idiopathic gastroparesis; assay: DIGEST I: weekly GRS total score; details: ITT
# Text: Gastroparesis Rating Score is a patient reported outcome that measures 9 symptoms: (1) nausea, (2) bloating, (3) postprandial fullness, (4) early satiety, (5) vomiting, (6) abdominal pain, (7) epigastric burning, (8) gastric reflux with or without burning, and (9) bowel movements, using up to 27 questions assessing the severity of the symptom, the daily frequency of the symptom, the length of time on a daily basis of the symptom, and whether the symptom continues over a 24-hour period.
# The total duration of study participation for each completed subject was approximately 19 weeks including: • Screening period: up to 5 weeks, including one week baseline period; • Treatment period: 12 weeks; and • Follow-up: 2 weeks.
# During the treatment period, subjects were instructed to take 1 capsule of study drug once daily approximately 30 minutes prior to eating at approximately the same time each morning and to record the time of drug ingestion in the electronic diary. Subjects also completed the GCS1-24H and GRS on a daily basis using an electronic diary. […] Subjects returned to the study center for safety and efficacy assessments as detailed in the Schedule of Study Procedures.
# as §1
# The primary endpoint evaluation time point was Week 4 with sensitivity analyses conducted at Weeks 8 and 12.
# LS Mean Differences in each subgroup are calculated based on repeated measures mixed effect model with change from baseline in weekly GRS total score as dependent variable, treatment, gastroparesis type (diabetic vs. idiopathic), GE test time (historical vs. prospective), baseline GRS total score, time, subgroup variable, interaction effect of treatment by time, baseline GRS total score by time, treatment by subgroup variable, time by subgroup variable and treatment by time by subgroup variable as fixed effect, a random effect of subject within site, using an unstructured covariance structure.
# [3] = 5 mg/day, Week 4, diabetic gastroparesis population
# [4] = 5 mg/day, Week 4, idiopathic gastroparesis population
# [5] = 5 mg/day, Week 8, diabetic gastroparesis population
# [6] = 5 mg/day, Week 8, idiopathic gastroparesis population
# [7] = 5 mg/day, Week 12, diabetic gastroparesis population
# [8] = 5 mg/day, Week 12, idiopathic gastroparesis population
# [9] = 15 mg/day, Week 4, diabetic gastroparesis population
# [10] = 15 mg/day, Week 4, idiopathic gastroparesis population
# [11] = 15 mg/day, Week 8, diabetic gastroparesis population
# [12] = 15 mg/day, Week 8, idiopathic gastroparesis population
# [13] = 15 mg/day, Week 12, diabetic gastroparesis population
# [14] = 15 mg/day, Week 12, idiopathic gastroparesis population
# [15] = 30 mg/day, Week 4, diabetic gastroparesis population
# [16] = 30 mg/day, Week 4, idiopathic gastroparesis population
# [17] = 30 mg/day, Week 8, diabetic gastroparesis population
# [18] = 30 mg/day, Week 8, idiopathic gastroparesis population
# [19] = 30 mg/day, Week 12, diabetic gastroparesis population
# [20] = 30 mg/day, Week 12, idiopathic gastroparesis population
substance,measurement,setting,value
"1-isopropyl-2-oxo-1,2-dihydroquinoline-3-carboxylic acid {(1S,3R,5R)-8-[(R)-2-hydroxy-3-(methanesulfonyl-methyl-amino)propyl]-8-azabicyclo[3.2.1]oct-3-yl}amide [Velusetrag]","LS Mean Difference vs placebo, GRS Summary Score 2 (Factor 2)","[1]; 5 mg/day, Week 4, ITT",−0.1 points and −0.1 (0.12) points
same,"LS Mean change from baseline, GRS Summary Score 2 (Factor 2)","[1]; 5 mg/day, Week 4, ITT",0.8 (0.08) points
same,"LS Mean Difference vs placebo, GRS Summary Score 2 (Factor 2)",[1]; [3],−0.0 points
same,"LS Mean change from baseline, GRS Summary Score 2 (Factor 2)",[1]; [3],−0.8 points
same,"LS Mean Difference vs placebo, GRS Summary Score 2 (Factor 2)",[1]; [4],−0.3 (0.17) points
same,"LS Mean change from baseline, GRS Summary Score 2 (Factor 2)",[1]; [4],−0.9 (0.12) points
same,"LS Mean Difference vs placebo, GRS Summary Score 2 (Factor 2)","[1]; 5 mg/day, Week 8, ITT",−0.1 (0.13) points
same,"LS Mean change from baseline, GRS Summary Score 2 (Factor 2)","[1]; 5 mg/day, Week 8, ITT",−0.9 (0.09) points
same,"LS Mean Difference vs placebo, GRS Summary Score 2 (Factor 2)",[1]; [5],0.0 points
same,"LS Mean change from baseline, GRS Summary Score 2 (Factor 2)",[1]; [5],−0.9 points
same,"LS Mean Difference vs placebo, GRS Summary Score 2 (Factor 2)",[1]; [6],−0.3 (0.18) points
same,"LS Mean change from baseline, GRS Summary Score 2 (Factor 2)",[1]; [6],−0.9 (0.13) points
same,"LS Mean Difference vs placebo, GRS Summary Score 2 (Factor 2)","[1]; 5 mg/day, Week 12, ITT",−0.2 points and −0.2 (0.12) points
same,"LS Mean change from baseline, GRS Summary Score 2 (Factor 2)","[1]; 5 mg/day, Week 12, ITT",−1.0 (0.08) points
same,"LS Mean Difference vs placebo, GRS Summary Score 2 (Factor 2)",[1]; [7],−0.1 points
same,"LS Mean change from baseline, GRS Summary Score 2 (Factor 2)",[1]; [7],−1.0 points
same,"LS Mean Difference vs placebo, GRS Summary Score 2 (Factor 2)",[1]; [8],−0.3 (0.17) points
same,"LS Mean change from baseline, GRS Summary Score 2 (Factor 2)",[1]; [8],−1.0 (0.12) points
same,"LS Mean Difference vs placebo, GRS Summary Score 2 (Factor 2)","[1]; 15 mg/day, Week 4, ITT",−0.0 (0.12) points
same,"LS Mean change from baseline, GRS Summary Score 2 (Factor 2)","[1]; 15 mg/day, Week 4, ITT",−0.7 (0.09) points
same,"LS Mean Difference vs placebo, GRS Summary Score 2 (Factor 2)",[1]; [9],0.1 points
same,"LS Mean change from baseline, GRS Summary Score 2 (Factor 2)",[1]; [9],−0.7 points
same,"LS Mean Difference vs placebo, GRS Summary Score 2 (Factor 2)",[1]; [10],−0.2 (0.18) points
same,"LS Mean change from baseline, GRS Summary Score 2 (Factor 2)",[1]; [10],−0.8 (0.13) points
same,"LS Mean Difference vs placebo, GRS Summary Score 2 (Factor 2)","[1]; 15 mg/day, Week 8, ITT",−0.0 (0.13) points
same,"LS Mean change from baseline, GRS Summary Score 2 (Factor 2)","[1]; 15 mg/day, Week 8, ITT",−0.8 (0.10) points
same,"LS Mean Difference vs placebo, GRS Summary Score 2 (Factor 2)",[1]; [11],0.3 points
same,"LS Mean change from baseline, GRS Summary Score 2 (Factor 2)",[1]; [11],−0.6 points
same,"LS Mean Difference vs placebo, GRS Summary Score 2 (Factor 2)",[1]; [12],−0.2 (0.19) points
same,"LS Mean change from baseline, GRS Summary Score 2 (Factor 2)",[1]; [12],−0.9 (0.14) points
same,"LS Mean Difference vs placebo, GRS Summary Score 2 (Factor 2)","[1]; 15 mg/day, Week 12, ITT",−0.1 (0.12) points
same,"LS Mean change from baseline, GRS Summary Score 2 (Factor 2)","[1]; 15 mg/day, Week 12, ITT",−0.9 (0.09) points
same,"LS Mean Difference vs placebo, GRS Summary Score 2 (Factor 2)",[1]; [13],0.1 points
same,"LS Mean change from baseline, GRS Summary Score 2 (Factor 2)",[1]; [13],−0.8 points
same,"LS Mean Difference vs placebo, GRS Summary Score 2 (Factor 2)",[1]; [14],−0.3 (0.18) points
same,"LS Mean change from baseline, GRS Summary Score 2 (Factor 2)",[1]; [14],−1.0 (0.13) points
same,"LS Mean Difference vs placebo, GRS Summary Score 2 (Factor 2)","[1]; 30 mg/day, Week 4, ITT",0.1 (0.12) points
same,"LS Mean change from baseline, GRS Summary Score 2 (Factor 2)","[1]; 30 mg/day, Week 4, ITT",−0.6 (0.09) points
same,"LS Mean Difference vs placebo, GRS Summary Score 2 (Factor 2)",[1]; [15],0.1 points
same,"LS Mean change from baseline, GRS Summary Score 2 (Factor 2)",[1]; [15],−0.6 points
same,"LS Mean Difference vs placebo, GRS Summary Score 2 (Factor 2)",[1]; [16],−0.0 (0.17) points
same,"LS Mean change from baseline, GRS Summary Score 2 (Factor 2)",[1]; [16],−0.7 (0.12) points
same,"LS Mean Difference vs placebo, GRS Summary Score 2 (Factor 2)","[1]; 30 mg/day, Week 8, ITT",−0.0 (0.13) points
same,"LS Mean change from baseline, GRS Summary Score 2 (Factor 2)","[1]; 30 mg/day, Week 8, ITT",−0.8 (0.09) points
same,"LS Mean Difference vs placebo, GRS Summary Score 2 (Factor 2)",[1]; [17],0.1 points
same,"LS Mean change from baseline, GRS Summary Score 2 (Factor 2)",[1]; [17],−0.8 points
same,"LS Mean Difference vs placebo, GRS Summary Score 2 (Factor 2)",[1]; [18],−0.1 (0.18) points
same,"LS Mean change from baseline, GRS Summary Score 2 (Factor 2)",[1]; [18],−0.8 (0.13) points
same,"LS Mean Difference vs placebo, GRS Summary Score 2 (Factor 2)","[1]; 30 mg/day, Week 12, ITT",−0.2 (0.12) points
same,"LS Mean change from baseline, GRS Summary Score 2 (Factor 2)","[1]; 30 mg/day, Week 12, ITT",−1.0 (0.08) points
same,"LS Mean Difference vs placebo, GRS Summary Score 2 (Factor 2)",[1]; [19],−0.2 points
same,"LS Mean change from baseline, GRS Summary Score 2 (Factor 2)",[1]; [19],−1.1 points
same,"LS Mean Difference vs placebo, GRS Summary Score 2 (Factor 2)",[1]; [20],−0.2 (0.17) points
same,"LS Mean change from baseline, GRS Summary Score 2 (Factor 2)",[1]; [20],−0.9 (0.12) points
same,"LS Mean Difference vs placebo, weekly GRS total score","[2]; 5 mg/day, Week 4",−0.4 points and −0.4 (0.16) points
same,"LS Mean change from baseline, weekly GRS total score","[2]; 5 mg/day, Week 4",−1.3 (0.11) points
same,"LS Mean Difference vs placebo, weekly GRS total score","[2]; 5 mg/day, Week 8",−0.3 (0.18) points
same,"LS Mean change from baseline, weekly GRS total score","[2]; 5 mg/day, Week 8",−1.4 (0.13) points
same,"LS Mean Difference vs placebo, weekly GRS total score","[2]; 5 mg/day, Week 12",−0.4 (0.18) points
same,"LS Mean change from baseline, weekly GRS total score","[2]; 5 mg/day, Week 12",−1.5 (0.13) points
same,"LS Mean Difference vs placebo, weekly GRS total score","[2]; 15 mg/day, Week 4",−0.2 (0.17) points
same,"LS Mean change from baseline, weekly GRS total score","[2]; 15 mg/day, Week 4",−1.1 (0.12) points
same,"LS Mean Difference vs placebo, weekly GRS total score","[2]; 15 mg/day, Week 8",−0.1 (0.19) points
same,"LS Mean change from baseline, weekly GRS total score","[2]; 15 mg/day, Week 8",−1.2 (0.14) points
same,"LS Mean Difference vs placebo, weekly GRS total score","[2]; 15 mg/day, Week 12",−0.2 (0.19) points
same,"LS Mean change from baseline, weekly GRS total score","[2]; 15 mg/day, Week 12",−1.3 (0.14) points
same,"LS Mean Difference vs placebo, weekly GRS total score","[2]; 30 mg/day, Week 4",0.0 (0.17) points
same,"LS Mean change from baseline, weekly GRS total score","[2]; 30 mg/day, Week 4",−0.8 (0.12) points
same,"LS Mean Difference vs placebo, weekly GRS total score","[2]; 30 mg/day, Week 8",−0.1 (0.19) points

# Reference: US11642339B2 (THERAVANCE BIOPHARMA R&D IP, LLC, priority 2017, dated 2023)
